# Experimental data reported in patent US10010536B2, “Method of modulating stress-activated protein kinase system” (InterMune, Inc., priority 2005, dated 2018).
# Tests used:
# [1] = system: TNFα release from THP-1 cells stimulated with lipopolysaccharide (LPS); experiment: Inhibition of TNFα release from THP-1 cells stimulated with lipopolysaccharide (LPS); type: cell-based; set-up: key to TNF EC50: A: ≤2,000; B: >2,000; C: Inconclusive (e.g., no data or no activity observed); settings: for EC50: Homo sapiens, read-out: TNF EC50
# Protocol: Compounds are screened for the ability to inhibit TNFα release from THP-1 cells stimulated with lipopolysaccharide (LPS) in vitro. The ability of compounds to inhibit TNFα release in this in vitro assay is correlated with the inhibition of p38 activity and TNFα, and is therefore an indicator of potential in vivo therapeutic activity (Lee J. C. et al. 1993 Ann. N.Y. Acad. Sci. 696:149-170; and 1994 Nature 372:739-746).
# THP-I cells from ATCC (TIB202) are maintained at 37° C., 5% CO2 in RPMI 1640 media (MediaTech, Herndon, Va.) containing 4.5 g/L glucose, supplemented with 10% fetal bovine serum, 1% penicillin/streptomycin and 50 μM β-mercaptoethanol.
# Test compounds are initially dissolved in RPMI media with 1% DMSO (v/v). Compounds are then serially diluted in RPMI media for all subsequent dilutions. The assay is performed under sterile conditions. THP-1 cells at a culture density of 6-8×10^5 cells/ml are collected and resuspended in the RPMI media at 10^6 cells/ml. 100 μl of resuspended cells are added to each well, which contain 100 μl of a test compound. Test compounds are prepared at twice the final concentration. Final DMSO concentration is no more than 0.5% (v/v). Cells are preincubated with compound for 60 minutes at 37° C., 5% CO2 prior to stimulation with lipopolysaccharide (LPS) (Sigma L-2880, 4 mg/ml stock in PBS). The final LPS concentration in each well is […] for TNFα and IL-1β release, respectively. Unstimulated control cell suspensions receive PBS vehicle only. Cell mixtures are incubated for 18 or 48 hours for TNFα and IL-1β release, respectively. 150 μl of supernatants are taken and transferred to a fresh plate and stored at −20° C. until farther analysis. TNFα and IL-1β levels are measured using ELISA kits. A Luminescence is used as the plate reader. Analysis is performed by non-linear regression to generate a dose response curve.
# THP-1 cells = experiment: Compound toxicity testing in a cell based assay (LDH release, ATP and/or MTT assay); settings: given as concentration
# Protocol: The release of LDH as result of a disrupted cell membrane is applied as a measure of cell toxicity. […] THP-1 cells are used for determination of cell toxicity for consistency with the induced TNFα expression in the previous experiment. […] The compounds are added at different concentrations in triplicate. The appropriate solvent control is used in each assay. After compound addition the cells are cultured 18 hours under regular tissue culture conditions. After this incubation period, the positive control is initiated by adding Triton-X-100 (2% v/v) to untreated cells and incubated for an additional 10 minutes for complete cell lysis. Subsequently the cells are sedimented by centrifugation and a fraction of the supernatant removed and analyzed for LDH enzyme activity according to the manufacturer's instructions. The data is typically reported as % cell toxicity normalized to the Triton-X-100 lysed cells as 100% cell toxicity.
# Toxicity data are also obtained using a commercially available ATP assay (Molecular Probes' ATP Determination Kit A22066, available from Invitrogen) and/or using a MTT assay. Both the ATP and the MTT assays measure metabolic competence of the cell. The MTT assay measures the ability of the cell to reduce a marker substrate, which is related to metabolic competence (i.e. viability). The ATP assay measures the cellular ATP concentration in the presence and absence of compound. Toxic compounds lead to reduced metabolic activity which leads to a reduction in ATP concentration.
# [2] = Pharmacokinetic properties in dual canulated Sprague Dawley rats; type: in vivo; set-up: Clobs: unit not given here; settings: rat; for AUC(0-t) / MRT inf / half-life: male, Sprague Dawley, plasma
# Protocol: The pharmacokinetic (PK) properties of pirfenidone, pirfenidone analogs and derivatives were assessed in dual canulated (right jugular/left carotid) Sprague Dawley rats (Charles River Laboratories, Inc., Wilmington, Mass.). Male rats weighing approximately 275-300 g were administered an intravenous (5 mg/Kg) or oral (50 mg/Kg via gavage) dose of compound in an appropriate formulation. Plasma samples were collected via intra-arterial canula at desired times in the 24 hours after dosing using EDTA as an anticoagulant. Three animals were used for each compound. All experiments were conducted by trained personnel in accordance with guidelines of the appropriate Institutional Animal Care and Use Committees (IACUC). Compound concentrations were assessed by LC-MS using a MDS SCIEX API 3000 mass spectrometer (Applied Biosystems, Foster City, Calif.) coupled to a Shimadzu VP HPLC (Shimadzu Corp., Kyoto, Japan) outfitted with a Duragel G C18 guard cartridge (Peeke Scientific, Redwood City, Calif.). Calibration samples were prepared by mixing known amounts of pirfenidone, or a pirfenidone analog or derivative, with rat plasma. A standard curve was created by serial dilution of the calibration sample in the same matrix. Both standard and analytical samples were prepared for injection to the HPLC by mixing an aliquot of plasma sample with 3 volumes of ice cold acetonitrile containing internal standard. Samples were then centrifuged. An aliquot of the resulting supernatant was then mixed with five volumes of 0.2% formic acid in water, injected to the HPLC, and resolved in a methanol gradient (containing 0.18-0.2% formic acid). The integrated analyte signal was corrected for that of the internal standard and compared to the appropriate standard curve in order to define the analyte concentration. The pharmacokinetic parameters shown in Table 4 were derived using the WinNonlin Software package (Pharsight Corp, Mountain View, Calif.).
# HFL-1 Cells = experiment: Effect of compounds on TGF-β-induced collagen production in HFL-1 cells (Sircol collagen assay); type: cell-based; settings: Homo sapiens, HFL1, 72 h, compound 1 mM, TGF-β1 10 ng/mL, three days, read-out: % Inhibition of TGF-β Stimulated Collagen Synthesis
# Protocol: HFL-1 Cells (ATCC, Rockville, Md.) were grown under regular tissue culture conditions in complete media containing 10% fetal bovine serum (FBS; Mediatech, Inc., Herndon, Va.). Cells in early passage were plated in 6 well plates. When the cells reached confluence, the media was removed, cells washed with PBS, and the cells were kept overnight in complete media containing 0.1% FBS. The media was then replaced with fresh media plus 0.1% FCS, 10 μM L-Proline (EMD Chemicals, Gibbstown, N.J.), 20 μg/mL ascorbic acid (EMD Chemicals, Gibbstown, N.J.). Compounds were added to triplicate wells to a final concentration of 1 mM from 100× stock solutions in DMSO. One hour after the addition of compound, the cells were treated with TGF-β1 (Sigma-Aldrich, St. Louis, Mo.) to a final concentration of 10 ng/mL (25 ng total). Three days after addition of TGF-β, the media was removed, cells were washed with PBS and then lysed. The total collagen content of lysed cells was assessed with a dye-based collagen assay (Sircol Collagen Assay, Newtownabbey, Northern Ireland) and a μQuant plate-based spectrophotometer (BioTek Insturments, Inc., Winooski, Vt.) with appropriate standard curves. The dynamic range of the assay is defined by cells that were mock treated (1% DMSO without compound) in the presence and absence of TGF-β.
EC50 [1],TNF EC50 [1],SMILES,also measured
≤ 2000 µM,,Cc1ccc(=O)n(-c2ccc(O)cc2)c1 [Compound 5],Toxicity (THP-1 cells): ≥1 mM
> 2000 µM,,O=c1ccc(C(F)(F)F)cn1-c1ccccc1 [Compound 8],"AUC(0-t) ([2]; IV, 5 mg/kg): 30200 ng·h/mL; MRT inf ([2]; IV, 5 mg/kg): 20.3 h; half-life ([2]; IV, 5 mg/kg): 13.9 h; AUC(0-t) ([2]; Oral, 50 mg/kg): 122000 ng·h/mL; Clobs ([2]; IV, 5 mg/kg): 0.117; E ([2]; Oral, 50 mg/kg): 40.5%; inhibition at 1000 µM (HFL-1 Cells): 48%"
,C,O=c1ccccn1-c1ccc(O)cc1 [Compound 9],
≤ 2000 µM,,"O=c1ccc(C(F)(F)F)cn1-c1ccc(O)cc1 [Compound 10, 1-(4-hydroxyphenyl)-5-(trifloromethyl)-2-pyridone]",
> 2000 µM,,O=c1ccccn1-c1ccc(F)cc1 [Compound 11],
,C,O=c1ccc(C(F)(F)F)cn1-c1ccc(F)cc1 [Compound 12],
> 2000 µM,,Cc1ccc(=O)n(-c2ccc(F)cc2)c1 [Compound 14],inhibition at 1000 µM (HFL-1 Cells): 23%
,C,COc1ccc(-n2cc(C(F)(F)F)ccc2=O)cc1 [Compound 15],inhibition at 1000 µM (HFL-1 Cells): 49%
≤ 2000 µM,,O=c1ccc(Br)cn1-c1ccccc1 [Compound 26],"AUC(0-t) ([2]; IV, 5 mg/kg): 10300 ng·h/mL; MRT inf ([2]; IV, 5 mg/kg): 2.4 h; half-life ([2]; IV, 5 mg/kg): 1.62 h; AUC(0-t) ([2]; Oral, 50 mg/kg): 65800 ng·h/mL; Clobs ([2]; IV, 5 mg/kg): 0.691; E ([2]; Oral, 50 mg/kg): 63.9%; inhibition at 1000 µM (HFL-1 Cells): 58%"
≤ 2000 µM,,COc1ccc(-n2cc(Br)ccc2=O)cc1 [Compound 27],
,C,O=c1ccc(CF)cn1-c1ccc(O)cc1 [Compound 28],
,C,O=c1ccc(C(F)F)cn1-c1ccc(O)cc1 [Compound 29],
≤ 2000 µM,,O=c1ccc(Br)cn1-c1ccc(O)cc1 [Compound 30],inhibition at 1000 µM (HFL-1 Cells): 69%
≤ 2000 µM,,COc1ccc(-n2cc(CF)ccc2=O)cc1 [Compound 31],
≤ 2000 µM,,COc1ccc(-n2cc(C(F)F)ccc2=O)cc1 [Compound 32],

# More lines, now with the values behind:
SMILES,EC50 [1],TNF EC50 [1],also measured
O=c1ccc(CO)cn1-c1ccccc1 [Compound 1],> 2000 µM,,
O=C(O)c1ccc(=O)n(-c2ccccc2)c1 [Compound 2],,C,
Cc1cc(O)c(=O)n(-c2ccccc2)c1 [Compound 4],≤ 2000 µM,,Toxicity (THP-1 cells): ≥1 mM
COCc1ccc(=O)n(-c2ccccc2)c1 [Compound 6],≤ 2000 µM,,Toxicity (THP-1 cells): ≥1 mM
O=c1ccccn1-c1ccccc1 [Compound 7],> 2000 µM,,
"Cc1ccc(=O)n(-c2ccccc2)c1 [Compound 13, 5-methyl-1-phenyl-2-(1H)-pyridone, reference compound]",≤ 2000 µM,,Toxicity (THP-1 cells): ≥1 mM
"CC(=O)c1ccc(=O)n(-c2ccccc2)c1 [Compound 16, 1-phenyl-5-acetyl-2-pyridone]",,C,
O=c1ccc(-c2ccccc2)cn1-c1ccccc1 [Compound 17],,C,
"Cc1ccc(=S)n(-c2ccccc2)c1 [Compound 18, 1-phenyl-5-methyl-2-pyridinethione]",,C,
O=c1ccc(C(F)F)cn1-c1ccccc1 [Compound 19],,,"AUC(0-t) ([2]; IV, 5 mg/kg): 35000 ng·h/mL; MRT inf ([2]; IV, 5 mg/kg): 6.26 h; half-life ([2]; IV, 5 mg/kg): 2.96 h; AUC(0-t) ([2]; Oral, 50 mg/kg): 192000 ng·h/mL; Clobs ([2]; IV, 5 mg/kg): 0.142; E ([2]; Oral, 50 mg/kg): 54.8%"
COC(=O)c1ccc(=O)n(-c2ccccc2)c1 [Compound 24],,C,
Cc1ccc(=O)n(-c2cc[n+](C)cc2)c1 [Compound 25],> 2000 µM,,
O=c1ccc2cc(Br)ccc2n1-c1ccccc1 [Compound 33],,C,
